The nature of data set [1]: Solubility of tacrolimus in Transcutol P. Type of data set: physicochemical. The settings on record: room temperature. From the text:
Since tacrolimus is lipid-soluble and a formulation for delivering a drug is in a hydrophilic gel form, a solubilizer that can dissolve tacrolimus and then disperse tacrolimus well was needed. Also, in order to enhance the skin permeability of tacrolimus, Transcutol P was selected as a substance which can act as an enhancer for skin permeability. […] Carbopol 934P used as a polymeric base absorbs and attracts water well, has an ability to form a film, and thus is widely used as a moisturizer. Carnosine, which is a biocomponent present in human muscle and brain tissue, is known as a substance having excellent antioxidant activity, and appropriately adjusts the pH of a formulation for external application when applied to skin.

The conditions of data set [2]: poorly soluble in water and highly permeable; cited from earlier work.

Take `C=CC[C@@H]1/C=C(\C)C[C@H](C)C[C@H](OC)[C@H]2O[C@@](O)(C(=O)C(=O)N3CCCC[C@H]3C(=O)O[C@H](/C(C)=C/[C@@H]3CC[C@@H](O)[C@H](OC)C3)[C@H](C)[C@@H](O)CC1=O)[C@H](C)C[C@@H]2OC` [tacrolimus, Tacrolimus]: the “solubility of tacrolimus in Transcutol P” value in data set [1] is reported as 240 mg/g. For the same compound, the BCS class entry in data set [2] is recorded as “class II”.
